These results are taken from patent US5441956A, “Hydroisoquinoline derivatives” (Smithkline Beecham Farmaceutici S.p.A., priority 1991, dated 1995).

pKi: −log10 of the molar value. Counter-ions that a name gives are not always drawn.

For experiment [1], the target named is T1, δ opioid receptor (delta sites) (Cavia porcellus, UniProt A0A286XTF2).
T1 construct: performed on fresh guinea pig brain homogenates; from tissue; host or cells: guinea pig whole brain without cerebellum, washed membrane homogenate
T1 sequence (A0A286XTF2 1-366): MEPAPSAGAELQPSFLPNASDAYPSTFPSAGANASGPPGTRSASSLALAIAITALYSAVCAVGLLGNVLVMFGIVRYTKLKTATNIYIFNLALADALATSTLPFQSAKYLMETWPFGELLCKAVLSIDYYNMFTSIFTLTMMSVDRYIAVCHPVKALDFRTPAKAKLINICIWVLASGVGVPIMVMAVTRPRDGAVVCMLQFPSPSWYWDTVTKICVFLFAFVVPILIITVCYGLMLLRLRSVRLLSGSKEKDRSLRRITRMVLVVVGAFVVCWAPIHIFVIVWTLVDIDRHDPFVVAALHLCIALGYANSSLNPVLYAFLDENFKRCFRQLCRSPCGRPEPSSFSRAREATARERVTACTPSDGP
The experiment is described as follows: Binding to delta sites (radioreceptor binding, 3H-DADLE with unlabelled DAGO). The note with it: guinea pig brain homogenate, 3H-DADLE + 30 nM DAGO, 40 min at 25° C. How it is done:
(§1) Radio receptor binding to delta, mu and kappa sites is performed on fresh guinea pig brain homogenates prepared according to Kosterlitz (1981). Whole brain, without cerebellum is homogenized in 50 mM Tris-buffer and centrifuged at 49,000×g for 10 min.
(§2) The pellet is then resuspended in the s3me buffer, incubated at 37° C. for 45 min. and centrifuged again.
(§3) 1.9 ml of the final homogenate (1:100 in Tris-pH 7.4 0° C.) is used for the binding assay.
For binding experiments, ^3 H-DADLE, which binds to mu and delta sites, is used in the presence of 30 nM of unlabelled DAGO to prevent mu binding. A concentration of radioligand near KD is used in the binding assays evaluating compounds of the invention. Non-specific binding is determined by addition of Mr 2266, 2.5 μM. The tubes are incubated for 40 min at 25° C. and bound ligand is separated from free by filtration through Whatman GF-G filters. The level of bound radioactivity on the filters is measured by liquid scintillation after solubilization in filtercount. The equilibrium dissociation constant (KD) and the maximum binding capacity (Bmax) are determined from the analysis of saturation curves, while the inhibition constant (Ki) is determined from the analysis of competition experiments (Hill 1910; Scatchard 1949; Cheng and Prusoff 973; Gillan et al 1980).

Experiment [2] deals with T2, μ opioid receptor (mu sites) (Cavia porcellus, UniProt A0ACM8Q262).
T2 construct: 3H-DAGO (DAMGO) displacement
T2 sequence (A0ACM8Q262 1-400): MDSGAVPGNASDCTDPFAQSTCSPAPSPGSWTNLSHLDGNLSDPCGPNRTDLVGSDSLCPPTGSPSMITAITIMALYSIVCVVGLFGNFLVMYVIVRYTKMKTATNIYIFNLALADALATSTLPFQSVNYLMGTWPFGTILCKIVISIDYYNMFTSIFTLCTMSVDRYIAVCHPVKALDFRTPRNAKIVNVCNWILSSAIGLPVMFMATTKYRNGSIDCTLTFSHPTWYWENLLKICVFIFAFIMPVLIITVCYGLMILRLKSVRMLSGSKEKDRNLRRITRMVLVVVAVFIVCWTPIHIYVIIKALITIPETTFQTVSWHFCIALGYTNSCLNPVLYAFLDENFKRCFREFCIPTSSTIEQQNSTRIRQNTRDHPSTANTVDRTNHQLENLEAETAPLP
Nature of the experiment: Binding to mu sites (3H-DAGO). The note with it: guinea pig brain homogenate, 40 min at 25° C. How it is done:
as §1, §2, §3
Binding to mu sites (Magnan J., 1982)
^3 H-[D-Ala^2, MePhe^4, Gly-Ol^5 ]Enkephalin (^3 H-DAGO), an enkephalin analogue that binds selectively to mu receptor, is added to the biological substrate and incubated at 25° C. for 40 min, filtered through Whatman GF-C filters and washed with ice-cold Tris buffer. The filters are then dried, solubilized in Filtercount and the radioactivity monitored. Non-specific binding is determined in the presence of 10^-6 M naloxone.

Experiment [3] concerns the target T3, κ opioid receptor (kappa sites) (Cavia porcellus, UniProt P41144).
T3 construct: performed on fresh guinea pig brain homogenates; from tissue; host or cells: guinea pig whole brain without cerebellum, washed membrane homogenate
The experiment is described as follows: Binding to kappa sites (3H-BRL 52537A). The note with it: guinea pig brain homogenate, 40 min at 25° C. How it is done:
as §1, §2, §3
Final homogenate with solutions of the cold ligand and of the labelled ligand is incubated for 40 min. at 25° C., filtered through Whatman GF-C glass filter discs and washed. The radioactivity bound to the filters is counted by liquid scintillation spectrophotometry.

The subject of experiment [4] is mice (Male Charles River, Swiss Strain). Nature of the experiment: Antinociception, tail-flick test in mice. The class given is in vivo, mouse. The note with it: i.t., 10 min pretreatment. How it is done:
The methodology employed is based on that described by D'Amour and Smith, J. Pharmacol. Exp. Ther. 72, 74 (1941).
Male Charles River mice (Swiss Strain) 29-35 g body weight are used.
Animals are allowed food and water ad libitum and are randomized into groups of 10 prior to experimentation.
Test compounds are dissolved in either distilled water or distilled water plus 0.1M AMS and administered by the intrathecal route in a final volume of 5 μl/mouse, according to the method described by Hylden and Wilcox, Eur. J. Pharmacol. 67,313 (1980).
Four hours prior the beginning of experiments, mice are anaesthetized with pentobarbital (80 mg/Kg i.p.) and a caudal cutaneous incision (1 cm) is performed on the back using a disposable 30 gauge 1/2 inch needles mated to a 50 μl luer siringe (Hamilton). The drug are delivered intrathecally between L5 and L6 of spinous process.
Control animals receive […] of the appropriate vehicle alone. Following a pretreatment period of 10 min., the mice are again placed under the heat source and the reaction time redetermined.
Percentage quantal protection is determined as the number of mice in which the reaction time is doubled compared to pretreatment values, expressed as a percentage of the total number of mice in the group.

T3 sequence (P41144 whole entry): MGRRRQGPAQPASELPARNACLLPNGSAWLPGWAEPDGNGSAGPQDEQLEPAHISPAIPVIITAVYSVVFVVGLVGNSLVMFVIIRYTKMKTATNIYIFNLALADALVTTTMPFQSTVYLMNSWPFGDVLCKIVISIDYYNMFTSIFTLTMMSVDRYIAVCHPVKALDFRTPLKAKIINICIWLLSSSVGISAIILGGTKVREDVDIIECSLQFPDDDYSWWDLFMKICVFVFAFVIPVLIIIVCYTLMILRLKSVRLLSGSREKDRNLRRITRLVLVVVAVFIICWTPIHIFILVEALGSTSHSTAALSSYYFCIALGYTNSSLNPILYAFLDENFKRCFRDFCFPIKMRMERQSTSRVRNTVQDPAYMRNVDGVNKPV

For `CCN1CC[C@]2(c3cccc(O)c3)Cc3[nH]c4ccccc4c3C[C@H]2C1` (relative stereo) [Example 1, 2-ethyl-4aα-(3-hydroxyphenyl)-1,2,3,4,4a,5,11,11aβ-octahydro indolo[2,3-g]isoquinoline hydrochloride], the pKi in experiment [1] is 7.79; in experiment [2], 5.68; in experiment [3], below 6.00. Moreover, the “Antinociception Mouse Tail-Flick ED50” value in experiment [4] worked out at 0.010 mg/mouse.

`CN1CC[C@]2(c3cccc(O)c3)Cc3[nH]c4ccccc4c3C[C@H]2C1` (relative stereo) [Example 5, 2-Methyl-4aα-(3-hydroxyphenyl)-1,2,3,4,4a,5,11,11aβ-octahydroindolo[2,3-g]isoquinoline hydrochloride]: the results for the pKi in experiment [1], in experiment [2] and in experiment [3] were 7.80, 6.51 and below 6.00, respectively.

With `CN1CC[C@]2(c3cccc(O)c3)Cc3c(c4ccccc4n3C)C[C@H]2C1` (relative stereo) [Example 7, 2,6-Dimethyl-4aα-(3-hydroxyphenyl)-1,2,3,4,4a,5,11,11aβ-octahydroindolo[2,3-g]isoquinoline], the pKi was 7.47 in experiment [1], 6.51 in experiment [2] and below 6.00 in experiment [3].

On to `CN1CC[C@]2(c3cccc(O)c3)Cc3oc4ccccc4c3C[C@H]2C1` (relative stereo) [Example 10, 2-Methyl-4aα-(3-hydroxyphenyl)-1,2,3,4,4a,5, 11, 11aβ-octahydrobenzofuro[2,3-g]isoquinoline], for which the results for the pKi in experiment [1], in experiment [2] and in experiment [3] were 8.00, 6.98 and below 6.00, respectively.

Take `Cc1ccc2[nH]c3c(c2c1)C[C@H]1CN(C)CC[C@]1(c1cccc(O)c1)C3` (relative stereo) [Example 12, 2,9-Dimethyl-4aα-(3-hydroxyphenyl)-1,2,3,4,4a,5,11,11aβ-octahydroindolo[2,3-g]isoquinoline]: the pKi in experiment [1] is 7.21; in experiment [2], 6.17; in experiment [3] it was below 6.00.

For `CN1CC[C@]2(c3cccc(O)c3)Cc3[nH]c4c(Cl)cccc4c3C[C@H]2C1` (relative stereo) [Example 16, 2-Methyl-4aα-(3-hydroxyphenyl)-7-chloro-1,2,3,4,4a,5,11,11aβ-octahydroindolo[2,3-g]isoquinoline], the figures for the pKi in experiment [1], in experiment [2] and in experiment [3] were 7.79, 6.25 and below 6.00, respectively.

For the compound `CCN1CC[C@]2(c3cccc(O)c3)Cc3[nH]c4ccccc4c3C[C@H]2C1` (single isomer, unassigned) [Example 39, (+)-2-Ethyl-4aα-(3-hydroxyphenyl)-1,2,3,4,4a,5,11,11aβ-octahydroindolo[2,3-g]isoquinoline hydrochloride], the pKi in experiment [1] is 8.20; in experiment [2], 5.65; in experiment [3] it was below 6.00.
